What was measured:
[1] = system: SETVI (Foxtail, Green); assay: Postemergence herbicidal evaluation; format: in vivo, Setaria viridis; settings: postemergence
In short: (§1)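 Visual 0-9 injury score (stand, vigor, malformation, size, chlorosis, appearance vs untreated) taken four to five weeks post-spray, averaged across repeat tests. Test plants about two weeks old; foliar spray of acetone/water (1:1) with 0.5% surfactant delivering ~0.0156-0.500 kg active/ha.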

[2] = system: ZEAMX (Corn, Field); assay: Preemergence herbicidal evaluation; format: in vivo, Zea mays; settings: preemergence, rated 4-5 weeks after treatment, 0-9 scale
In short: (§2)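 Herbicidal effect scored visually, 0-9, at 4 to 5 weeks against a control; compound applied preemergence by aqueous acetone spray to seeded soil at about 0.0156 to 0.500 kg/ha.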

[3] = system: ECHORC (Watergrass (Calif.)); assay: Postemergence weed control under flooded paddy conditions; format: in vivo, Echinochloa oryzoides; settings: postemergence weeds, rated 3 to 4 weeks after treatment
In short: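 Herbicidal effect is judged by eye on a 0–9 scale versus control, 3–4 weeks after dosing. Dosing is into flood water kept 1.5–3 cm over the soil, at about 0.0313–0.500 kg/ha in aqueous/acetone 50/50 v/v, on 3–5 cm weeds and 1.5–2.5-leaf rice seedlings.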

[4] = system: CASOB (Sicklepod); assay: Preemergence herbicidal evaluation; format: in vivo, Cassia obtusifolia; settings: preemergence, rated 4-5 weeks after treatment, 0-9 scale
In short: as §2

[5] = system: IPOHE (Morningglory, Ivyleaf); assay: Postemergence herbicidal evaluation; format: in vivo, Ipomoea hederacea; settings: postemergence
In short: as §1

[6] = system: ECHCG (Barnyardgrass); assay: Postemergence herbicidal evaluation; format: in vivo, Echinochloa crus-galli; settings: postemergence
In short: as §1

[7] = system: AMBEL (Ragweed, Common); assay: Postemergence herbicidal evaluation; format: in vivo, Ambrosia artemisifolia; settings: postemergence
In short: as §1

[8] = system: ECHCG (Barnyardgrass); assay: Preemergence herbicidal evaluation; format: in vivo, Echinochloa crus-galli; settings: preemergence, rated 4-5 weeks after treatment, 0-9 scale
In short: as §2

[9] = system: CHEAL (Lambsquarters, Common); assay: Preemergence herbicidal evaluation; format: in vivo, Chenopodium album; settings: preemergence, rated 4-5 weeks after treatment, 0-9 scale
In short: as §2

[10] = system: IPOHE (Morningglory, Ivyleaf); assay: Preemergence herbicidal evaluation; format: in vivo, Ipomoea hederacea; settings: preemergence, rated 4-5 weeks after treatment, 0-9 scale
In short: as §2

[11] = system: GALAP (Galium); assay: Preemergence herbicidal evaluation; format: in vivo, Galium aparine; settings: preemergence, rated 4-5 weeks after treatment, 0-9 scale
In short: as §2

[12] = system: TRZAWR (Wheat, Winter, cv Riband); assay: Postemergence herbicidal evaluation; format: in vivo, Triticum aestivum; settings: postemergence
In short: as §1

[13] = system: GLXMAW (Soybean, Williams); assay: Postemergence herbicidal evaluation; format: in vivo, Glycine max, (L.) Merr. cv Williams; settings: postemergence
In short: as §1

[14] = system: ABUTH (Velvetleaf); assay: Postemergence herbicidal evaluation; format: in vivo, Abutilon theophrasti; settings: postemergence
In short: as §1

C=CCN1C(=O)C(CC(=O)NC)SC1=Nc1cc(-n2c(=O)cc(C(F)(F)F)n(C)c2=O)c(F)cc1Cl (stereo not shown) [Compound 84, 3-Allyl-2-{{2-chloro-5-[3,6-dihydro-3-methyl-2,6-dioxo-4-(trifluoromethyl)-1(2H)-pyrimidinyl]-4-fluorophenyl}imino}-N-methyl-4-oxo-5-thiazolidineacetamide]
5.0: ZEAMX rating ([2]; 0.1250 kg/ha) | Herbicidal rating ECHORC ([3]; Rate 0.0625 kg/ha) | CHEAL rating ([9]; 0.0156 kg/ha) | GALAP rating ([11]; 0.2500 kg/ha) | GALAP rating ([11]; 0.5000 kg/ha) | TRZAWR herbicidal rating ([12]; rate 0.1250 kg/ha)
7.0: Herbicidal rating ECHORC ([3]; Rate 0.1250 kg/ha)
8.5: GLXMAW herbicidal rating ([13]; rate 0.1250 kg/ha)
8.0: ZEAMX rating ([2]; 0.2500 kg/ha)
4.5: TRZAWR herbicidal rating ([12]; rate 0.0625 kg/ha) | GLXMAW herbicidal rating ([13]; rate 0.0313 kg/ha) | GLXMAW herbicidal rating ([13]; rate 0.0625 kg/ha)
9.0: ZEAMX rating ([2]; 0.5000 kg/ha) | Herbicidal rating ECHORC ([3]; Rate 0.2500 kg/ha) | CASOB rating ([4]; 0.5000 kg/ha) | IPOHE herbicidal rating ([5]; rate 0.0156 kg/ha) | IPOHE herbicidal rating ([5]; rate 0.0313 kg/ha) | IPOHE herbicidal rating ([5]; rate 0.0625 kg/ha) | IPOHE herbicidal rating ([5]; rate 0.1250 kg/ha) | AMBEL herbicidal rating ([7]; rate 0.0313 kg/ha) | AMBEL herbicidal rating ([7]; rate 0.0625 kg/ha) | AMBEL herbicidal rating ([7]; rate 0.1250 kg/ha) | ECHCG rating ([8]; 0.5000 kg/ha) | CHEAL rating ([9]; 0.0313 kg/ha) | CHEAL rating ([9]; 0.0625 kg/ha) | CHEAL rating ([9]; 0.1250 kg/ha) | CHEAL rating ([9]; 0.2500 kg/ha) | CHEAL rating ([9]; 0.5000 kg/ha) | IPOHE rating ([10]; 0.2500 kg/ha) | IPOHE rating ([10]; 0.5000 kg/ha) | ABUTH herbicidal rating ([14]; rate 0.0156 kg/ha) | ABUTH herbicidal rating ([14]; rate 0.0313 kg/ha) | ABUTH herbicidal rating ([14]; rate 0.0625 kg/ha) | ABUTH herbicidal rating ([14]; rate 0.1250 kg/ha)
4.0: Herbicidal rating ECHORC ([3]; Rate 0.0313 kg/ha) | AMBEL herbicidal rating ([7]; rate 0.0156 kg/ha) | GLXMAW herbicidal rating ([13]; rate 0.0156 kg/ha)
2.0: SETVI herbicidal rating ([1]; rate 0.1250 kg/ha) | ECHCG rating ([8]; 0.2500 kg/ha)
3.5: TRZAWR herbicidal rating ([12]; rate 0.0313 kg/ha)
3.0: TRZAWR herbicidal rating ([12]; rate 0.0156 kg/ha)
1.0: IPOHE rating ([10]; 0.1250 kg/ha)
0.0: SETVI herbicidal rating ([1]; rate 0.0156 kg/ha) | SETVI herbicidal rating ([1]; rate 0.0313 kg/ha) | SETVI herbicidal rating ([1]; rate 0.0625 kg/ha) | ZEAMX rating ([2]; 0.0156 kg/ha) | ZEAMX rating ([2]; 0.0313 kg/ha) | ZEAMX rating ([2]; 0.0625 kg/ha) | CASOB rating ([4]; 0.0156 kg/ha) | CASOB rating ([4]; 0.0313 kg/ha) | CASOB rating ([4]; 0.0625 kg/ha) | CASOB rating ([4]; 0.1250 kg/ha) | CASOB rating ([4]; 0.2500 kg/ha) | ECHCG herbicidal rating ([6]; rate 0.0156 kg/ha) | ECHCG herbicidal rating ([6]; rate 0.0313 kg/ha) | ECHCG herbicidal rating ([6]; rate 0.0625 kg/ha) | ECHCG herbicidal rating ([6]; rate 0.1250 kg/ha) | ECHCG rating ([8]; 0.0156 kg/ha) | ECHCG rating ([8]; 0.0313 kg/ha) | ECHCG rating ([8]; 0.0625 kg/ha) | ECHCG rating ([8]; 0.1250 kg/ha) | IPOHE rating ([10]; 0.0156 kg/ha) | IPOHE rating ([10]; 0.0313 kg/ha) | IPOHE rating ([10]; 0.0625 kg/ha) | GALAP rating ([11]; 0.0156 kg/ha) | GALAP rating ([11]; 0.0313 kg/ha) | GALAP rating ([11]; 0.0625 kg/ha) | GALAP rating ([11]; 0.1250 kg/ha)

C=CCN1C(=O)C(CC(=O)OCCF)SC1=Nc1cc(-n2c(=O)cc(C(F)(F)F)n(C)c2=O)c(F)cc1Cl (stereo not shown) [Compound 86, 2-Fluoroethyl 3-allyl-2-{{2-chloro-5-[3,6-dihydro-3-methyl-2,6-dioxo-4-(trifluoromethyl)-1(2H)-pyrimidinyl]-4-fluorophenyl}imino}-4-oxo-5-thiazolidineacetate]
6.0: Herbicidal rating ECHORC ([3]; Rate 0.0625 kg/ha) | TRZAWR herbicidal rating ([12]; rate 0.0156 kg/ha)
5.0: Herbicidal rating ECHORC ([3]; Rate 0.0313 kg/ha)
8.5: TRZAWR herbicidal rating ([12]; rate 0.1250 kg/ha) | GLXMAW herbicidal rating ([13]; rate 0.0156 kg/ha)
7.5: TRZAWR herbicidal rating ([12]; rate 0.0625 kg/ha)
9.0: SETVI herbicidal rating ([1]; rate 0.0313 kg/ha) | SETVI herbicidal rating ([1]; rate 0.0625 kg/ha) | SETVI herbicidal rating ([1]; rate 0.1250 kg/ha) | ZEAMX rating ([2]; 0.5000 kg/ha) | Herbicidal rating ECHORC ([3]; Rate 0.1250 kg/ha) | Herbicidal rating ECHORC ([3]; Rate 0.2500 kg/ha) | IPOHE herbicidal rating ([5]; rate 0.0156 kg/ha) | IPOHE herbicidal rating ([5]; rate 0.0313 kg/ha) | IPOHE herbicidal rating ([5]; rate 0.0625 kg/ha) | IPOHE herbicidal rating ([5]; rate 0.1250 kg/ha) | ECHCG herbicidal rating ([6]; rate 0.0313 kg/ha) | ECHCG herbicidal rating ([6]; rate 0.0625 kg/ha) | ECHCG herbicidal rating ([6]; rate 0.1250 kg/ha) | AMBEL herbicidal rating ([7]; rate 0.0156 kg/ha) | AMBEL herbicidal rating ([7]; rate 0.0313 kg/ha) | AMBEL herbicidal rating ([7]; rate 0.0625 kg/ha) | AMBEL herbicidal rating ([7]; rate 0.1250 kg/ha) | CHEAL rating ([9]; 0.0625 kg/ha) | CHEAL rating ([9]; 0.1250 kg/ha) | CHEAL rating ([9]; 0.2500 kg/ha) | CHEAL rating ([9]; 0.5000 kg/ha) | IPOHE rating ([10]; 0.1250 kg/ha) | IPOHE rating ([10]; 0.2500 kg/ha) | IPOHE rating ([10]; 0.5000 kg/ha) | GALAP rating ([11]; 0.2500 kg/ha) | GALAP rating ([11]; 0.5000 kg/ha) | GLXMAW herbicidal rating ([13]; rate 0.0313 kg/ha) | GLXMAW herbicidal rating ([13]; rate 0.0625 kg/ha) | GLXMAW herbicidal rating ([13]; rate 0.1250 kg/ha) | ABUTH herbicidal rating ([14]; rate 0.0156 kg/ha) | ABUTH herbicidal rating ([14]; rate 0.0313 kg/ha) | ABUTH herbicidal rating ([14]; rate 0.0625 kg/ha) | ABUTH herbicidal rating ([14]; rate 0.1250 kg/ha)
0.0: ZEAMX rating ([2]; 0.0156 kg/ha) | ZEAMX rating ([2]; 0.0313 kg/ha) | ZEAMX rating ([2]; 0.0625 kg/ha) | ZEAMX rating ([2]; 0.1250 kg/ha) | CASOB rating ([4]; 0.0156 kg/ha) | CASOB rating ([4]; 0.0313 kg/ha) | CASOB rating ([4]; 0.0625 kg/ha) | CASOB rating ([4]; 0.1250 kg/ha) | CASOB rating ([4]; 0.2500 kg/ha) | ECHCG rating ([8]; 0.0156 kg/ha) | ECHCG rating ([8]; 0.0313 kg/ha) | ECHCG rating ([8]; 0.0625 kg/ha) | ECHCG rating ([8]; 0.1250 kg/ha) | ECHCG rating ([8]; 0.2500 kg/ha) | IPOHE rating ([10]; 0.0156 kg/ha) | IPOHE rating ([10]; 0.0313 kg/ha) | GALAP rating ([11]; 0.0156 kg/ha) | GALAP rating ([11]; 0.0313 kg/ha) | GALAP rating ([11]; 0.0625 kg/ha) | GALAP rating ([11]; 0.1250 kg/ha)
7.0: TRZAWR herbicidal rating ([12]; rate 0.0313 kg/ha)
3.0: CASOB rating ([4]; 0.5000 kg/ha) | ECHCG herbicidal rating ([6]; rate 0.0156 kg/ha)
8.0: SETVI herbicidal rating ([1]; rate 0.0156 kg/ha) | IPOHE rating ([10]; 0.0625 kg/ha)
4.0: ZEAMX rating ([2]; 0.2500 kg/ha) | ECHCG rating ([8]; 0.5000 kg/ha) | CHEAL rating ([9]; 0.0156 kg/ha) | CHEAL rating ([9]; 0.0313 kg/ha)
